Experiment [1] has as its target T1, Carboxypeptidase B (Sus scrofa, UniProt P09955).
T1 sequence (P09955 whole entry): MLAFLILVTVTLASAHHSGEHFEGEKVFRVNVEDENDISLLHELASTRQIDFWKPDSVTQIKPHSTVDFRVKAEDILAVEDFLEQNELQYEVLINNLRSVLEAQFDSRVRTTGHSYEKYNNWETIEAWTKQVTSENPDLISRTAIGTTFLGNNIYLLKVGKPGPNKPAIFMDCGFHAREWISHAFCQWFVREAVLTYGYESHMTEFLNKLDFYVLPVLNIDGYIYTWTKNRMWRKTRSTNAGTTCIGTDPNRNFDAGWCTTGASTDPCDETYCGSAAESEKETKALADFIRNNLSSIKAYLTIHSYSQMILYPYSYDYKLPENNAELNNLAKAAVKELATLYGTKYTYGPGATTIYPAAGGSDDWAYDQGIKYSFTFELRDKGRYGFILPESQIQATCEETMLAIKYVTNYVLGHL
The experiment can be described thus: Inhibition of porcine pancreatic carboxypeptidase B.

For experiment [2], the target named is T2, Carboxypeptidase N catalytic chain (Homo sapiens, UniProt P15169).
T2 sequence (P15169 whole entry): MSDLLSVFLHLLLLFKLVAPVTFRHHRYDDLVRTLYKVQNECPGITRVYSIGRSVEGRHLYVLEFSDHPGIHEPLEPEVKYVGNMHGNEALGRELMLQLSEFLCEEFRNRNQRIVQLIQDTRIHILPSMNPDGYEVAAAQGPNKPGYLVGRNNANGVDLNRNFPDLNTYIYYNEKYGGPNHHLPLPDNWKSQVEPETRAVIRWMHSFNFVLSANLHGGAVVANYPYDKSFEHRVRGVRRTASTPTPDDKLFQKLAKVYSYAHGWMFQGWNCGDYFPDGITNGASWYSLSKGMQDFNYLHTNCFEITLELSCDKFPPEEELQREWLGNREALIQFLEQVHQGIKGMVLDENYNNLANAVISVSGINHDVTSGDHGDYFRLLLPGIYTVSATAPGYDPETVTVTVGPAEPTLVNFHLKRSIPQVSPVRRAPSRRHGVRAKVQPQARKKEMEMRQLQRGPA
As to the kind of experiment: Inhibition of human carboxypeptidase N.

Experiment [3] concerns the target T3, Carboxypeptidase B2 (Homo sapiens, UniProt Q96IY4).
T3 sequence (Q96IY4 whole entry): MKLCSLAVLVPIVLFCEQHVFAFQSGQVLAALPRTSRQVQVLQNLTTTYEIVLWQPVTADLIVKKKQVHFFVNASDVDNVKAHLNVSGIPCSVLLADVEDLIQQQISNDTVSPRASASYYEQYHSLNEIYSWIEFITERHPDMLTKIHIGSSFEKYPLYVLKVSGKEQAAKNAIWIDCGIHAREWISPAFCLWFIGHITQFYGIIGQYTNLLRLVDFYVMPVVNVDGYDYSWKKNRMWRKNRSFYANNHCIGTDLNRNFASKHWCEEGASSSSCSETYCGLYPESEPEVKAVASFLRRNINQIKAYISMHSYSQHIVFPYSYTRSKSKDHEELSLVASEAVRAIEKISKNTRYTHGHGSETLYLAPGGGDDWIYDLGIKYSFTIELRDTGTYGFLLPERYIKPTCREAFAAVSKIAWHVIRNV
As to the kind of experiment: Inhibition of human activated thrombin activatable fibrinolysis inhibitor.

For experiment [4], the system named is Plasma. As to the kind of experiment: Inhibition of activated thrombin activatable fibrinolysis inhibitor in human plasma assessed as acceleration of clot lysis time. The experiment is classed as functional, cell-free.

The source of these data is ChEMBL document CHEMBL1139080, “3-Mercaptopropionic acids as efficacious inhibitors of activated thrombin activatable fibrinolysis inhibitor (TAFIa)” (Bioorg Med Chem Lett, 2007).

One may read the IC50 as the midpoint of a concentration-inhibition curve. Lower therefore signals inhibition by little substance. With `NC(N)=NCCCC(CS)C(=O)O` (stereo not given), the IC50 stood at 10 nM in experiment [1], 2 nM in experiment [2] and 8 nM in experiment [3].

`N=C(N)N1CCC(C(CS)C(=O)O)CC1` (stereo not given): the figures for the IC50 in experiment [1], in experiment [2] and in experiment [3] were 45 nM, 3100 nM and 1070 nM, respectively.

`CC(=N)N1CCC(C(CS)C(=O)O)CC1` (stereo not given): the IC50 in experiment [1] was 1040 nM; in experiment [2], 29000 nM; in experiment [3] it was 5300 nM.

In the case of `NCC(=O)N1CCC(C(CS)C(=O)O)CC1` (stereo not given), the results for the IC50 in experiment [1], in experiment [2] and in experiment [3] were over 30000 nM, 4950 nM and 7350 nM, respectively.

On to `N=C(N)Nc1ccc(Cl)c(C(CS)C(=O)O)c1` (stereo not given), for which the IC50 worked out at 4650 nM in experiment [1], 4650 nM in experiment [2] and 11 nM in experiment [3].

As for `Nc1cccc(C(CS)C(=O)O)c1` (stereo not given), the concentration for half-maximal inhibition (IC50) in experiment [1] is over 30000 nM; in experiment [2], 357 nM; in experiment [3], 785 nM.

Take `O=C(O)C(CS)C1CCNCC1` (stereo not given): the results for the IC50 in experiment [1], in experiment [2] and in experiment [3] were 195 nM, 60 nM and 37 nM, respectively.

Regarding `O=C(O)C(CS)CC1CCNCC1` (stereo not given), the half-maximal inhibitory concentration (IC50) came to 29 nM in experiment [1], 61 nM in experiment [2] and 139 nM in experiment [3].

For the compound `N=C(N)c1ccc(C(CS)C(=O)O)cc1` (stereo not given), the half-maximal inhibitory concentration (IC50) in experiment [1] was 845 nM; in experiment [2], 1000 nM; in experiment [3], 905 nM.

Take `N=C(N)Nc1cccc(C(CS)C(=O)O)c1` (racemic) [listing 1 of 2 here]: the IC50 in experiment [1] worked out at 137 nM; in experiment [2], 3 nM; in experiment [3] it was 4 nM.

Take `N=C(N)Nc1cccc(C(CS)C(=O)O)c1` (racemic) [listing 2 of 2 here]: in experiment [4], the Activity entry is “Dose-dependent effect”.

Regarding `N=C(N)Nc1cccc(C(CS)C(=O)O)c1` (single isomer, unassigned; (+)), the IC50 in experiment [1] was found to be 36 nM; in experiment [2], 8 nM; in experiment [3], 5 nM.

As to `N=C(N)N1CCCC(C(CS)C(=O)O)C1` (stereo in doubt; 1b), the IC50 in experiment [1] is 38 nM; in experiment [2], 38 nM; in experiment [3], 45 nM.

Regarding `O=C(O)C(CS)C1CCCNC1` (stereo in doubt; 1c), the values for the half-maximal inhibitory concentration (IC50) in experiment [1], in experiment [2] and in experiment [3] were over 30000 nM, over 30000 nM and 68 nM, respectively.

For the compound `N=C(N)N1CCCC(C(CS)C(=O)O)C1` (stereo in doubt; 1d), the IC50 in experiment [1] turned out to be 3 nM; in experiment [2], 58 nM; in experiment [3], 165 nM.

As to `O=C(O)C(CS)C1CCCNC1` (stereo in doubt; 1e), the figures for the half-maximal inhibitory concentration (IC50) in experiment [1], in experiment [2] and in experiment [3] were 19000 nM, 1750 nM and 445 nM, respectively.

As for `O=C(O)C(CS)CC1CCCNC1` (stereo in doubt; 3a), the values for the IC50 in experiment [1], in experiment [2] and in experiment [3] were 4150 nM, 420 nM and 92 nM, respectively.

Take `O=C(O)C(CS)CC1CCCNC1` (stereo in doubt; 3b): the IC50 in experiment [1] was 1950 nM; in experiment [2], over 30000 nM; in experiment [3], 129 nM.

Turning to `N=C(N)Nc1cccc(C(CS)C(=O)O)c1` (stereo in doubt; (-)2a), the figures for the IC50 in experiment [1], in experiment [2] and in experiment [3] were 1720 nM, 1720 nM and 3 nM, respectively.
